Values of other authors, collected in PMC3263412 (International Journal of Nanomedicine, 2012).

## CCCCCCCCCCCCCCCC[N+](C)(C)C [CTAB, Cetyltrimethyl ammonium bromide]
  cytotoxicity: marked cytotoxicity
